In patent US20230295212A1 (ROME Therapeutics, Inc., priority 2022, published 2023):

What follows are compounds tested against T1, LINE1 reverse transcriptase (Homo sapiens, UniProt O00370) (assay: Stable artificial-intron Cis LINE1 reporter assay (HeLa Tet-On 3G, Firefly luciferase)). Settings: HeLa L1 artificial-intron reporter cells, doxycycline 500 ng/mL, 72 h, class symbols.
T1 construct: expressed in transfected cells; host or cells: HeLa Tet-On 3G (Takara, cat no 631183)
Assay type: cell-based
Experimental: Exemplary compounds, were tested for the ability to inhibit LINE1 reverse transcriptase using a stable artificial-intron Cis LINE1 reporter assay. Assay procedures and results are described below.
A stable HeLa Tet-On 3G (Takara, cat no 631183) cell line expressing a bi-directional inducible LINE1 construct was generated as described in Xie, Y. et al. “Cell division promotes efficient retrotransposition in a stable L1 reporter cell line,” Mobile DNA (2013) 4:10. Single cell clones were screened for high Luciferase expression and the highest expression Firefly expressing clone was chosen for compound testing.
Test compounds were serially diluted in DMSO and spotted in 96-well plates. Subsequently, the HeLa Li artificial-intron reporter cells were plated into the compound-containing wells (8,000 cells/well), and the cells were induced for reporter expression with doxycycline (Sigma-Aldrich cat #D9891) at a final concentration of 500 ng/mL. Luminescence was measured 72 h after plating using the Dual-Glo Luciferase Assay System (Promega cat #E2940) following the manufacturer's instructions. The Firefly Luciferase activity was used to report LINE1 activity.

T1 sequence (O00370 whole entry, looked up): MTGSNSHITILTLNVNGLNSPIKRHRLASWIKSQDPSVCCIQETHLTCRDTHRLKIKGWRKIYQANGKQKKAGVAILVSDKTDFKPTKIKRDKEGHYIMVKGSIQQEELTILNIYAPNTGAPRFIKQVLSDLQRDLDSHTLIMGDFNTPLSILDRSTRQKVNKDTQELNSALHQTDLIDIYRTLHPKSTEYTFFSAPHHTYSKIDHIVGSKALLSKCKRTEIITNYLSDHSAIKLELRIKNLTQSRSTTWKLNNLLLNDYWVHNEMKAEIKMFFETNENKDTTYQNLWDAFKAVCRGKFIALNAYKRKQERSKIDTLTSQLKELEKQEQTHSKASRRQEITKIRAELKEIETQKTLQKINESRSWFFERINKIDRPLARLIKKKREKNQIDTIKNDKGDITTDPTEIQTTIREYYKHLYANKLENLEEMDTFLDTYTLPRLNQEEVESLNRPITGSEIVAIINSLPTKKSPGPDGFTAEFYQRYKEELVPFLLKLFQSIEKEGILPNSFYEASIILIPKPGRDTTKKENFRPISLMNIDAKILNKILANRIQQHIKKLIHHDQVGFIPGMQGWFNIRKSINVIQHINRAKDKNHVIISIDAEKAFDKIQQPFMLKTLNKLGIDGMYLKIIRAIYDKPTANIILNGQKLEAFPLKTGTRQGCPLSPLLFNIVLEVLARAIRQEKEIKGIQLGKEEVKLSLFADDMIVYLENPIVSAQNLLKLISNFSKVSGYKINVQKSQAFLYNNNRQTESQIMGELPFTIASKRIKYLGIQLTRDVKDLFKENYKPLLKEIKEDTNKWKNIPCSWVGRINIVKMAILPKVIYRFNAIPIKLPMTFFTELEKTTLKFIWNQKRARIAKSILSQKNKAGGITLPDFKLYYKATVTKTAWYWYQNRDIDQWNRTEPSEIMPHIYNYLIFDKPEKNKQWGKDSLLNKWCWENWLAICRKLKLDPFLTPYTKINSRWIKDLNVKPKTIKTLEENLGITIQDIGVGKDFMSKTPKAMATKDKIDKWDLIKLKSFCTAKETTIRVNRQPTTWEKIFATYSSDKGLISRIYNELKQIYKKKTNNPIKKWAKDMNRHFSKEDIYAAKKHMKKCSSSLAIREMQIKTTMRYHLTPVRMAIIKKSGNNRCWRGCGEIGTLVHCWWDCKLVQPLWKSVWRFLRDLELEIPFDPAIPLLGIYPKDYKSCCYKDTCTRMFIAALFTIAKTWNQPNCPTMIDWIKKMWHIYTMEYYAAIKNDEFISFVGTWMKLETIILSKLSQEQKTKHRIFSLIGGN

`Nc1nc(=O)n([C@H]2C[C@H](O)[C@](CO)(C(F)F)O2)cc1F` [Compound 65, 4-amino-1-[(2R,4S,5R)-5-(difluoromethyl)-4-hydroxy-5-(hydroxymethyl)oxolan-2-yl]-5-fluoropyrimidin-2-one] and `Nc1nc(=O)n([C@@H]2O[C@@](CO)(CF)[C@@H](O)[C@@H]2F)cc1F` [Compound 85, 4-amino-5-fluoro-1-[(2R,3S,4R,5R)-3-fluoro-5-(fluoromethyl)-4-hydroxy-5-(hydroxymethyl)oxolan-2-yl] pyrimidin-2-one] cannot be ordered by IC50: ≤ 50 nM for the first, 50 to 100 nM for the second.

`[2H]C([2H])(Cl)[C@]1(CO)O[C@@H](n2cc(F)c(N)nc2=O)[C@@H](F)[C@@H]1O` [Compound 175, 4-amino-1-((2R,3S,4R,5R)-5-(chloromethyl-d2)-3-fluoro-4-hydroxy-5-(hydroxymethyl)tetrahydrofuran-2-yl)-5-fluoropyrimidin-2(1H)-one] and `CC[C@]1(CO)O[C@@H](n2cc(F)c(N)nc2=O)[C@@H](F)[C@@H]1O` [Compound 77, 4-amino-1-[(2R,3S,4R,5R)-5-ethyl-3-fluoro-4-hydroxy-5-(hydroxymethyl)oxolan-2-yl]-5-fluoropyrimidin-2-one] cannot be ordered by IC50: ≤ 50 nM for the first, ≤ 50 nM for the second.

Compared with `C=C[C@]1(CO)O[C@@H](n2cnc3c(=O)[nH]c(N)nc32)[C@@H](F)[C@@H]1O` [Compound 63, 2-amino-9-[(2R,3S,4R,5R)-5-ethenyl-3-fluoro-4-hydroxy-5-(hydroxymethyl)oxolan-2-yl]-1H-purin-6-one], `Nc1nc2c(ncn2[C@@H]2O[C@@](CO)(CF)[C@@H](O)[C@@H]2F)c(=O)[nH]1` [Compound 83, 2-amino-9-((2R,3S,4R,5R)-3-fluoro-5-(fluoromethyl)-4-hydroxy-5-(hydroxymethyl)tetrahydrofuran-2-yl)-1,9-dihydro-6H-purin-6-one] is higher in IC50: 250 to 1000 nM for the first, > 1000 nM for the second.

First: C=C[C@]1(CO)O[C@@H](n2cnc3c(N)nc(F)nc32)C[C@@H]1O [Compound 109, (2R,3S,5R)-5-(6-amino-2-fluoro-9H-purin-9-yl)-2-(hydroxymethyl)-2-vinyltetrahydrofuran-3-ol]
Second: Nc1nc(F)nc2c1ncn2[C@H]1C[C@H](O)C(CO)(CO)O1 [Compound 10, ((3S,5R)-5-(6-amino-2-fluoro-9H-purin-9-yl)-3-hydroxytetrahydrofuran-2,2-diyl)dimethanol]
The IC50 of the first is lower: ≤ 50 nM for the first, > 1000 nM for the second. The first is the more potent here.

`Cc1cn([C@@H]2O[C@@](CO)(CCl)[C@@H](O)[C@@H]2F)c(=O)[nH]c1=O` [Compound 176] and `O=c1ccn([C@@H]2O[C@@](CO)(CCl)[C@@H](O)[C@H]2F)c(=O)[nH]1` [Compound 29, 1-((2R,3R,4R,5R)-5-(chloromethyl)-3-fluoro-4-hydroxy-5-(hydroxymethyl)tetrahydrofuran-2-yl)pyrimidine-2,4(1H,3H)-dione] cannot be ordered by IC50: > 1000 nM for the first, > 1000 nM for the second.

`C#C[C@]1(CO)O[C@@H](n2cnc3c(N)nc(F)nc32)[C@@H](F)[C@@H]1O` [Compound 42, (2R,3R,4S,5R)-5-(6-amino-2-fluoro-9H-purin-9-yl)-2-ethynyl-4-fluoro-2-(hydroxymethyl) tetrahydrofuran-3-ol] and `C#C[C@]1(CO)O[C@@H](n2cnc3c(N)nc(Cl)nc32)[C@@H](F)[C@@H]1O` [Compound 5, (2R,3R,4S,5R)-5-(6-amino-2-chloro-9H-purin-9-yl)-2-ethynyl-4-fluoro-2-(hydroxymethyl)tetrahydrofuran-3-ol] cannot be ordered by IC50: ≤ 50 nM for the first, 50 to 100 nM for the second.

`Nc1ccn([C@@H]2O[C@@](CO)(CCl)[C@@H](O)[C@H]2F)c(=O)n1` [Compound 31, 4-amino-1-((2R,3R,4R,5R)-5-(chloromethyl)-3-fluoro-4-hydroxy-5-(hydroxymethyl)tetrahydrofuran-2-yl)pyrimidin-2(1H)-one] and `C#C[C@]1(CO)O[C@@H](n2ccc(N)nc2=O)[C@@H](F)[C@@H]1O` [Compound 35, 4-amino-1-((2R,3S,4R,5R)-5-ethynyl-3-fluoro-4-hydroxy-5-(hydroxymethyl)tetrahydrofuran-2-yl)pyrimidin-2(1H)-one] cannot be ordered by IC50: ≤ 50 nM for the first, ≤ 50 nM for the second.

`C#C[C@]1(CO)O[C@@H](n2ccc(=O)[nH]c2=O)[C@H](F)[C@@H]1O` [Compound 33, 1-((2R,3R,4R,5R)-5-ethynyl-3-fluoro-4-hydroxy-5-(hydroxymethyl)tetrahydrofuran-2-yl)pyrimidine-2,4(1H,3H)-dione] and `O=c1[nH]c(=O)n([C@@H]2O[C@@](CO)(CCO)[C@@H](O)[C@@H]2F)cc1F` [Compound 179, 5-fluoro-1-((2R,3S,4R,5R)-3-fluoro-4-hydroxy-5-(2-hydroxyethyl)-5-(hydroxymethyl)tetrahydrofuran-2-yl) pyrimidine-2,4(1H,3H)-dione] cannot be ordered by IC50: > 1000 nM for the first, > 1000 nM for the second.

`C=C[C@]1(CO)O[C@@H](n2cc(F)c(N)nc2=O)[C@@H](O)[C@@H]1O` [Compound 75, 4-amino-1-((2R,3S,4S,5R)-3,4-dihydroxy-5-(hydroxymethyl)-5-vinyltetrahydrofuran-2-yl)-5-fluoropyrimidin-2(1H)-one] and `C#C[C@]1(CO)O[C@@H](n2cc(F)c(N)nc2=O)[C@@H](O)[C@@H]1O` [Compound 116, 4-amino-1-((2R,3S,4S,5R)-5-ethynyl-3,4-dihydroxy-5-(hydroxymethyl)tetrahydrofuran-2-yl)-5-fluoropyrimidin-2(1H)-one] fall in the same range of IC50: 100 to 250 nM for the first, 100 to 250 nM for the second.

First: CCCC1(CO)O[C@@H](n2ccc(N)nc2=O)C[C@@H]1O (stereo partly drawn) [Compound 57, 4-amino-1-((2R,4S,5R)-4-hydroxy-5-(hydroxymethyl)-5-propyltetrahydrofuran-2-yl)pyrimidin-2(1H)-one]
Second: Nc1ccn([C@H]2C[C@H](O)[C@](CO)(C3CC3)O2)c(=O)n1 [Compound 16, 4-amino-1-((2R,4S,5R)-5-cyclopropyl-4-hydroxy-5-(hydroxymethyl)tetrahydrofuran-2-yl)pyrimidin-2(1H)-one]
The IC50 of the first is higher: > 1000 nM for the first, 250 to 1000 nM for the second. The second is the more potent here.

First: Nc1ccn([C@@H]2O[C@@](CO)(C3CC3)[C@@H](O)[C@@H]2F)c(=O)n1 [Compound 121, 4-amino-1-[(2R,3S,4R,5R)-5-cyclopropyl-3-fluoro-4-hydroxy-5-(hydroxymethyl)oxolan-2-yl] pyrimidin-2-one]
Second: Nc1ncnc2c1ncn2[C@H]1C[C@H](O)[C@](CO)(CCl)O1 [Compound 15, (2R,3S,5R)-5-(6-amino-9H-purin-9-yl)-2-(chloromethyl)-2-(hydroxymethyl)tetrahydrofuran-3-ol]
The IC50 of the first is lower: 100 to 250 nM for the first, 250 to 1000 nM for the second.

Same assay, conditions: HeLa L1 artificial-intron reporter cells, doxycycline 500 ng/mL, 72 h, numeric bounds

`CC(C)C(=O)OC[C@@]1(CCl)O[C@@H](n2ncc(N)nc2=O)C[C@@H]1OC(=O)C(C)C` [Compound 174, (2R,3S,5R)-5-(5-amino-3-oxo-1,2,4-triazin-2(3H)-yl)-2-(chloromethyl)-2-((isobutyryloxy)methyl)tetrahydrofuran-3-yl isobutyrate] and `NC[C@]1(CO)O[C@@H](n2cc(F)c(N)nc2=O)[C@@H](F)[C@@H]1O` [Compound 139, 4-amino-1-[(2R,3S,4R,5R)-5-(aminomethyl)-3-fluoro-4-hydroxy-5-(hydroxymethyl)oxolan-2-yl]-5-fluoropyrimidin-2-one] cannot be ordered by IC50: > 30000 nM for the first, > 30000 nM for the second.

With `CC(O)[C@]1(CO)O[C@@H](n2cc(F)c(=O)[nH]c2=O)[C@@H](F)[C@@H]1O` (stereo partly drawn) [Compound 162, 5-fluoro-1-[(2R,3S,4R,5S)-3-fluoro-4-hydroxy-5-(1-hydroxyethyl)-5-(hydroxymethyl)oxolan-2-yl]-3H-pyrimidine-2,4-dione] the IC50 was > 30000 nM.
